Experimental data published in patent publication US10463709B2, “Short synthetic peptide for treating diseases and/or conditions related to angiogenesis” (MacKay Memorial Hospital, priority 2015, dated 2019).
Entries after “also recorded” stand apart in the source; their conditions may differ. Ends that are not written are not given here.

Experiments:
[1] = tested on: human uterine sarcoma cells (MES-SA/Dx5); test: Tumorigenicity assay, xenografted human uterine sarcoma; format: in vivo, nude mice; conditions: 10 mg/kg intraperitoneal every 2 days for 10 days
Procedure: MES-SA/Dx5 cells (5×10^6 cells in 0.1 ml) were implanted by subcutaneous injections in the right flank region of female nude mice (n=24, each animal weighted about 20 g before the assay began). The experiments were approved by the Mackay Memorial Hospital Review Board for animal investigation. Treatment was initiated in animals when the tumor volume was above 80 mm^3. Vehicle DMSO, the present synthetic peptide or the control peptide (10 mg/kg) was administered by intraperitoneal injections every 2 days. Tumor progression was monitored for 10 days; size of the tumor was measured every 3 to 5 days with a caliper and the volume was calculated using the following formula: ½×length×width^2.
To this purpose, human uterine sarcoma cells (MES-SA/Dx5) were implanted in nude mice to induce tumor formation, and when the volume of each tumor reached 80 mm^3, animals were then treated with vehicle alone, or the 7-mer peptide at the dose of 10 mg/kg, every 2 days for 10 days. Results are depicted in FIG. 9.

[2] = tested on: rat model of laser-induced wet AMD; test: Laser-induced wet AMD, rat model; format: in vivo; conditions: fluorescein angiography day 14; vs PBS vehicle
Text: Further, the effect of 7-mer or 7-mer DD on rat model of laser-induced wet AMD was also investigated. Fluorescein angiography images were obtained on day 14 after laser burn, and the images were subsequently scored. Results are depicted in FIG. 14.

HUVECs = test: Apoptosis assay (annexin V-FITC); format: cell-based; conditions: treatment for 16 hrs; annexin V-FITC staining
Procedure: The percentage of apoptotic HUVEC cells was assayed using TACS annexin V-FITC kit. The percentage of annexin V-positive cells was determined using in situ staining according to the manufacturer's instruction. The cell number was determined by counterstaining with Hoechst 33342. The nuclei in ten randomly selected fields of the three different chambers (˜7200 cells) were counted. Specimens were examined and photographed on a Zeiss epifluorescence microscope (×100, 10 fields/sample). Pictures were recorded on Zeiss software.

B16-F10 melanoma cells = test: Experimental pulmonary metastasis in mice; format: in vivo, C57BL/6 mice
In short: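 Female C57BL/6 mice (6 weeks) received 2×10^5 B16-F10 cells i.v. via tail vein. Peptide, control peptide (10 mg/kg) or DMSO vehicle given i.p. every 2 days, 5 mice per group. Visible surface lung colonies counted under a dissecting microscope on day 8.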

[3] = tested on: laser-induced wet AMD mouse model; test: Laser induced choroidal neovascularization (CNV), mouse; format: in vivo, C57BL/6 mice; conditions: 10 mg/kg intraperitoneal twice a day for 10 days; vs vehicle
Procedure: The 8-week-old female C57BL/6 mice were anaesthetized by injecting intraperitoneally a mixture of zoletil (6 mg/kg) and xylazine (3 mg/kg). The retina was viewed through a slit lamp microscope, and the optic nerve head was placed in the center of the microscope field. Both eyes received 3 or 4 laser burns around the optic nerve head using the diode laser (lesion diameter 50 μm; duration 100 ms; energy 250 mW). The formation of a blister indicates rupture of the Bruch's membrane after laser application. DMSO Vehicle or 7-mer (10 mg/kg; n≥10 per peptide) were administered by intraperitoneal injections twice a day for 10 days. Fluorescein fundus images were taken about 5 minutes after intraperitoneal injection of 0.1 mL of 100 mg/ml Fluorescein (10% w/v). During this period, the size of fluorescein leakage spots was relatively stable. The leakage of each CNV lesion was graded by a retina specialist according to the method described by Sheets et al. (Molecular Vision 2010; 16:320-329). […]
Wet type age-related macular degeneration (AMD) is characterized by extensive growth of new vessels in retina. […] Newly formed microvessels with clear fluorescein leakage in retina were assessed by fundus fluorescein angiography 10 days post laser treatment, and results are provided in the photographs of FIG. 13.

NH2-Asp-Leu-Tyr-Arg-Val-Arg-Ser-COOH (DLYRVRS; not fully specified (N-terminus, C-terminus); printed as NH2-Asp-Leu-Tyr-Arg-Val-Arg-Ser-COOH) [7-mer]
tumor volume [1]: 125±15.4 mm^3 | lesions caused by the laser burn [2]: significantly ameliorated | percentage of apoptotic HUVECs (HUVECs): 32.4±3.8% | effect on number of colonies on the surface of the lung / in vivo metastasis (B16-F10 melanoma cells; 10 mg/Kg intraperitoneal every 2 days): capable of reducing the number of colonies; also recorded: may suppress in vivo metastasis | No. lung colonies (B16-F10 melanoma cells; 10 mg/Kg intraperitoneal every 2 days, day 8, n = 5): 72 ± 16.0 | Inhibition (%) (B16-F10 melanoma cells; lung colonies vs vehicle, 10 mg/Kg): 67.9% | CNV lesion grades, severity distribution [3]: lower severity distribution of CNV
